Experimental data: PubChem BioAssay AID248 (DTP/NCI, 2004)
Where “and” joins values, the source holds several entries; their conditions need not be identical. Identical values can stand only once. Toxic doses and inconclusive results are not listed. Rule as the data show it: active = T/C of 150% or more; inactive = T/C below 125%.

System: L1210 leukemia ip in BDF1 mice, survival T/C
Test: NCI In Vivo Anticancer Drug Screen. Data for tumor model L1210 Leukemia (intraperitoneal) in B6D2F1 (BDF1) mice
Conditions: endpoint: mean survival time, higher = longer survival
Outline: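 Mice bearing the transplanted tumor received compound or vehicle. Survival of the treated group was divided by that of the vehicle-treated control group to give the ratio.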

[1] = dose: 100.0 mg/kg/injection, schedule: Q04DX003 (ip), vehicle: Klucel (hydroxypropylcellulose) (HPC)
[2] = dose: 200.0 mg/kg/injection, schedule: Q04DX003 (ip), vehicle: Klucel (hydroxypropylcellulose) (HPC)
[3] = dose: 200.0 mg/kg/injection, schedule: Q04DX003 (ip), vehicle: saline with Tween-80
[4] = dose: 100.0 mg/kg/injection, schedule: Q01DX009 (ip), vehicle: Klucel (hydroxypropylcellulose) (HPC)
[5] = dose: 200.0 mg/kg/injection, schedule: Q01DX009 (ip), vehicle: Klucel (hydroxypropylcellulose) (HPC)
[6] = dose: 400.0 mg/kg/injection, schedule: Q01DX009 (ip), vehicle: Klucel (hydroxypropylcellulose) (HPC)
[7] = dose: 400.0 mg/kg/injection, schedule: Q04DX003 (ip), vehicle: Klucel (hydroxypropylcellulose) (HPC)

Measured: T/C

CCCCCCCCCCCCCCCCCCNC(=O)C[N+](C)(C)Cc1ccccc1
inactive: dose: 3.13 mg/kg/injection, schedule: Q01DX009 (ip), vehicle: saline with Tween-80 93 % of control | dose: 6.25 mg/kg/injection, schedule: Q01DX009 (ip), vehicle: saline with Tween-80 98 % of control | dose: 12.5 mg/kg/injection, schedule: Q01DX009 (ip), vehicle: saline with Tween-80 89 % of control

O=C(NCCCCCCCNC(=O)Nc1ccc(C2=NCCCN2)cc1)Nc1ccc(C2=NCCCN2)cc1
inactive: dose: 3.75 mg/kg/injection, schedule: Q01DX Z (ip), vehicle: carboxymethylcellulose (CMC) 98 % of control | dose: 7.5 mg/kg/injection, schedule: Q01DX Z (ip), vehicle: carboxymethylcellulose (CMC) 102 % of control | dose: 15.0 mg/kg/injection, schedule: Q01DX Z (ip), vehicle: carboxymethylcellulose (CMC) 120 % of control | dose: 30.0 mg/kg/injection, schedule: Q01DX Z (ip), vehicle: carboxymethylcellulose (CMC) 89 % of control

NNCCC(=O)O
inactive: dose: 100.0 mg/kg/injection, schedule: Q01DX001 (ip), vehicle: saline 107 % of control | dose: 200.0 mg/kg/injection, schedule: Q01DX001 (ip), vehicle: saline 102 % of control | dose: 400.0 mg/kg/injection, schedule: Q01DX001 (ip), vehicle: saline 115 % of control

O=C(CCCc1ccc(N(CCCl)CCCl)cc1)Nc1ccc(F)cc1
inactive: dose: 4.0 mg/kg/injection, schedule: Q12HX018 (ip), vehicle: other 103 % of control | dose: 6.0 mg/kg/injection, schedule: Q12HX018 (ip), vehicle: other 106 % of control | dose: 8.0 mg/kg/injection, schedule: Q12HX018 (ip), vehicle: other 104 % of control

CCCCN(CCCC)CCCCCN
inactive: dose: 25.0 mg/kg/injection, schedule: Q01DX Z (ip), vehicle: carboxymethylcellulose (CMC) 106 % of control | dose: 50.0 mg/kg/injection, schedule: Q01DX Z (ip), vehicle: carboxymethylcellulose (CMC) 86 % of control | dose: 100.0 mg/kg/injection, schedule: Q01DX Z (ip), vehicle: carboxymethylcellulose (CMC) 90 % of control

Nc1nc(Cc2cccc3ccccc23)nc(Cc2cccc3ccccc23)n1
inactive: [1] 87 % of control | [2] 92 % of control

Cc1cc(C)c(C(=O)c2no[n+]([O-])c2C(=O)c2c(C)cc(C)c(Br)c2C)c(C)c1Br
inactive: [3] 87 % of control

CC1(C)CC(C(=O)O)C(=O)O1 (stereo not drawn)
inactive: dose: 75.0 mg/kg/injection, schedule: Q01DX001 (ip), vehicle: saline 97 % of control | dose: 150.0 mg/kg/injection, schedule: Q01DX001 (ip), vehicle: saline 103 % of control | dose: 300.0 mg/kg/injection, schedule: Q01DX001 (ip), vehicle: saline 98 % of control

C=CCN(C(=O)OCC)c1ccccc1
inactive: [4] 110 % of control | [1] 95 % of control | [5] 108 % of control | [2] 106 % of control | [6] 93 % of control | [7] 106 % of control

N#CCCNCCC#N
inactive: dose: 100.0 mg/kg/injection, schedule: Q01DX009 (ip), vehicle: saline 103 % of control | dose: 100.0 mg/kg/injection, schedule: Q04DX003 (ip), vehicle: saline 102 % of control | dose: 200.0 mg/kg/injection, schedule: Q01DX009 (ip), vehicle: saline 97 % of control | dose: 200.0 mg/kg/injection, schedule: Q04DX003 (ip), vehicle: saline 100 % of control | dose: 400.0 mg/kg/injection, schedule: Q01DX009 (ip), vehicle: saline 104 % of control | dose: 400.0 mg/kg/injection, schedule: Q04DX003 (ip), vehicle: saline 96 % of control

CCCN(CCC)NC(=O)c1ccc(N=NN(C)C)cc1
inactive: dose: 25.0 mg/kg/injection, schedule: Q01DX001 (ip), vehicle: other 106 % of control | dose: 50.0 mg/kg/injection, schedule: Q01DX001 (ip), vehicle: other 98 % of control | dose: 100.0 mg/kg/injection, schedule: Q01DX001 (ip), vehicle: other 106 % of control | dose: 100.0 mg/kg/injection, schedule: Q01DX001 (ip), vehicle: saline with Tween-80 101 % of control

C/C=C/Cn1cnc2c1c(=O)n(C)c(=O)n2C
inactive: dose: 100.0 mg/kg/injection, schedule: Q04DX003 (ip), vehicle: saline with Tween-80 95 % of control | [3] 95 % of control

O=[N+]([O-])c1cc([N+](=O)[O-])c(Nn2c3ccccc3c3ccccc32)c([N+](=O)[O-])c1
inactive: dose: 6.25 mg/kg/injection, schedule: Q01DX009 (ip), vehicle: Klucel (hydroxypropylcellulose) (HPC) 103 % of control | dose: 12.5 mg/kg/injection, schedule: Q01DX009 (ip), vehicle: Klucel (hydroxypropylcellulose) (HPC) 104 % of control and 87 % of control | dose: 25.0 mg/kg/injection, schedule: Q01DX009 (ip), vehicle: Klucel (hydroxypropylcellulose) (HPC) 100 % of control and 102 % of control | dose: 25.0 mg/kg/injection, schedule: Q04DX003 (ip), vehicle: Klucel (hydroxypropylcellulose) (HPC) 107 % of control | dose: 50.0 mg/kg/injection, schedule: Q01DX009 (ip), vehicle: Klucel (hydroxypropylcellulose) (HPC) 96 % of control | dose: 50.0 mg/kg/injection, schedule: Q04DX003 (ip), vehicle: Klucel (hydroxypropylcellulose) (HPC) 95 % of control | [4] 94 % of control | [1] 92 % of control and 96 % of control | [2] 94 % of control and 87 % of control | [7] 102 % of control

O=[N+]([O-])c1ccc(Oc2ccc(Cl)cc2)cc1
inactive: [1] 94 % of control | [2] 102 % of control | [7] 94 % of control

CC(C)(C)C1=CC(=O)C(N=[N+]=[N-])=CC1=O
inactive: dose: 100.0 mg/kg/injection, schedule: Q04DX002 (ip), vehicle: saline 94 % of control | dose: 200.0 mg/kg/injection, schedule: Q04DX002 (ip), vehicle: saline 115 % of control

CCOC(=O)NC(CC)CO (stereo not drawn)
inactive: [4] 96 % of control | [1] 96 % of control | [5] 92 % of control | [2] 104 % of control | [6] 108 % of control | [7] 96 % of control

[Cl][Sn]([CH]1CCCCC1)([CH]1CCCCC1)[CH]1CCCCC1
inactive: dose: 12.5 mg/kg/injection, schedule: Q04DX002 (ip), vehicle: gum acacia 101 % of control | dose: 25.0 mg/kg/injection, schedule: Q04DX002 (ip), vehicle: gum acacia 101 % of control
